Test results taken from US20260083708A1, “IL-17 MODULATORS AND USES THEREOF” (NNOCARE PHARMA INC., priority 2024, published 2026).

Columns and labels:
[1] = tested on: IL-17AA-induced IL-17 signaling pathway; assay: Inhibition of IL-17AA-induced IL-17 signaling pathway in HEK-Blue IL-17 reporter cells (SEAP); assay type: cell-based; conditions: Homo sapiens; HEK-Blue IL-17 cells, IL-17AA 2.5 ng/mL, 20 hours; read-out: IC50 for Inhibiting IL-AA Signaling
How it was run: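 HEK-Blue IL-17 cells (HEK293 expressing human IL-17RA/RC, ACT1 and NF-κB/AP-1-driven SEAP), 10,000/well, pre-incubated with compound (serial dilution from 10 μM) for 1 h at 37 °C, then stimulated with IL-17AA at 2.5 ng/mL final for 20 h. SEAP in supernatant read with Quanti-Blue at 620 nm; IC50 by 4-parameter fit.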

[2] = biological target: T1, IL-17AA and IL-17RA (Homo sapiens, UniProt Q16552); assay: Competitive inhibition of human IL-17AA and IL-17RA binding (HTRF); conditions: recombinant IL-17AA (His-tag) and IL-17RA (hFc-tag); read-out: IC50 for Inhibiting IL-AA/IL-RA Binding
T1 construct: purchased Sino Biological 12047-H07B (IL-17AA); 10895-H02H (IL-17RA)
T1 sequence (Q16552 24-155): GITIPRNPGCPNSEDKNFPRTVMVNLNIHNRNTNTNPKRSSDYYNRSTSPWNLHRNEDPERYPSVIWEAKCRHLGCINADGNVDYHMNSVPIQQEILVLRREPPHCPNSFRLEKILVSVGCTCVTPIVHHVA
How it was run: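 His-IL-17AA (1 nM) premixed 1 h with anti-His-Tb (0.4 nM), and Fc-IL-17RA (1 nM) with anti-IgG-d2 (1 μg/mL); these are pre-mix levels. Compounds, diluted from 10 μM, preincubated 2 h RT with IL-17AA mix; IL-17RA mix then added, 20 min. 665/615 ratio vs no-compound and no-IL-17AA controls; IC50 by 4-parameter fit.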

[3] = tested on: IL-17AF-induced IL-17 signaling pathway; assay: Inhibition of IL-17AF-induced IL-17 signaling pathway; assay type: cell-based; conditions: Homo sapiens; IL-17AF used instead of IL-17AA; read-out: IC50 for Inhibiting IL-AF Signaling
How it was run: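 HEK293-derived HEK-Blue IL-17 cells (IL-17RA/RC, ACT1, NF-κB/AP-1-driven SEAP) preincubated 1 hour at 37° C with serially diluted compound from 10 μM, then stimulated with IL-17AF for 20 hours. SEAP read colorimetrically at 620 nm; IC50 from 4-parameter fit of % inhibition.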

SMILES	IC50 [1]	IC50 [2]	IC50 [3]
[2H]C([2H])([2H])n1nccc1C(=O)N[C@H](C(=O)Nc1ccc([C@H](C)[C@@H](NC(=O)CC)c2ncnn2CC2CC2)cc1F)C(C1CC1)C1CC1 [Compound 62, N-((S)-1,1-dicyclopropyl-3-((4-((1R,2S)-1-(1-(cyclopropylmethyl)-1H-1,2,4-triazol-5-yl)-1-propionamidopropan-2-yl)-2-fluorophenyl)amino)-3-oxopropan-2-yl)-1-(methyl-d3)-1H-pyrazole-5-carboxamide]	6.5 nM	2.6 nM	18.4 nM
CCOCC(=O)N[C@@H](c1ncnn1CC1CC1)[C@@H](C)c1ccc(NC(=O)[C@@H](NC(=O)c2nonc2C)C(C2CC2)C2CC2)c(F)c1 [Compound 63, N-((S)-1,1-dicyclopropyl-3-((4-((1R,2S)-1-(1-(cyclopropylmethyl)-1H-1,2,4-triazol-5-yl)-1-(2-ethoxyacetamido)propan-2-yl)-2-fluorophenyl)amino)-3-oxopropan-2-yl)-4-methyl-1,2,5-oxadiazole-3-carboxamide]	4 nM	2.5 nM	8.3 nM
Cc1nonc1C(=O)N[C@H](C(=O)Nc1ccc([C@H](C)[C@@H](NC(=O)COC(F)(F)F)c2ncnn2CC2CC2)cc1F)C(C1CC1)C1CC1 [Compound 64, N-((S)-1,1-dicyclopropyl-3-((4-((1R,2S)-1-(1-(cyclopropylmethyl)-1H-1,2,4-triazol-5-yl)-1-(2-(trifluoromethoxy)acetamido)propan-2-yl)-2-fluorophenyl)amino)-3-oxopropan-2-yl)-4-methyl-1,2,5-oxadiazole-3-carboxamide]	3.6 nM	1.1 nM	5.9 nM
Cc1nonc1C(=O)N[C@H](C(=O)Nc1ccc([C@H](C)[C@@H](NC(=O)COC(F)F)c2ncnn2CC2CC2)cc1F)C(C1CC1)C1CC1 [Compound 65, N-((S)-1,1-dicyclopropyl-3-((4-((1R,2S)-1-(1-(cyclopropylmethyl)-1H-1,2,4-triazol-5-yl)-1-(2-(difluoromethoxy)acetamido)propan-2-yl)-2-fluorophenyl)amino)-3-oxopropan-2-yl)-4-methyl-1,2,5-oxadiazole-3-carboxamide]	2.8 nM	0.9 nM	3.6 nM
CC(=O)N[C@@H](c1ncnn1CC1CC1)[C@@H](C)c1ccc(NC(=O)[C@@H](NC(=O)c2nonc2C)C(C2CC2)C2CC2)c(F)c1 [Compound 67, N-((S)-1-((4-((1R,2S)-1-acetamido-1-(1-(cyclopropylmethyl)-1H-1,2,4-triazol-5-yl)propan-2-yl)-2-fluorophenyl)amino)-3,3-dicyclopropyl-1-oxopropan-2-yl)-4-methyl-1,2,5-oxadiazole-3-carboxamide]	8 nM	1.1 nM	13 nM
[2H]C([2H])([2H])OCC(=O)N[C@@H](c1ncnn1CC1CC1)[C@@H](C)c1ccc(NC(=O)[C@@H](NC(=O)c2ccnn2CC)C(C2CC2)C2CC2)c(F)c1 [Compound 68, N-((S)-1,1-dicyclopropyl-3-((4-((1R,2S)-1-(1-(cyclopropylmethyl)-1H-1,2,4-triazol-5-yl)-1-(2-(methoxy-d3)acetamido)propan-2-yl)-2-fluorophenyl)amino)-3-oxopropan-2-yl)-1-ethyl-1H-pyrazole-5-carboxamide]	5.6 nM	4.5 nM	6.4 nM
[2H]C([2H])([2H])n1nccc1C(=O)N[C@H](C(=O)Nc1ccc([C@H](C)[C@@H](NC(=O)CO)c2ncnn2CC2CC2)cc1F)C(C1CC1)C1CC1 [Compound 69, N-((S)-1,1-dicyclopropyl-3-((4-((1R,2S)-1-(1-(cyclopropylmethyl)-1H-1,2,4-triazol-5-yl)-1-(2-hydroxyacetamido)propan-2-yl)-2-fluorophenyl)amino)-3-oxopropan-2-yl)-1-(methyl-d3)-1H-pyrazole-5-carboxamide]	42 nM	13 nM	74 nM
Cc1nonc1C(=O)N[C@H](C(=O)Nc1ccc([C@H](C)[C@@H](NC(=O)CC#N)c2ncnn2CC2CC2)cc1F)C(C1CC1)C1CC1 [Compound 70, N-((S)-1-((4-((1R,2S)-1-(2-cyanoacetamido)-1-(1-(cyclopropylmethyl)-1H-1,2,4-triazol-5-yl)propan-2-yl)-2-fluorophenyl)amino)-3,3-dicyclopropyl-1-oxopropan-2-yl)-4-methyl-1,2,5-oxadiazole-3-carboxamide]	7.5 nM	3.4 nM	7.3 nM
[2H]C([2H])([2H])OCC(=O)N[C@@H](c1ncnn1CC1CC1)[C@@H](C)c1ccc(NC(=O)[C@@H](NC(=O)c2ccnn2C([2H])([2H])[2H])C(C2CC2)C2CC2)c(F)c1 [Compound 71, N-((S)-1,1-dicyclopropyl-3-((4-((1R,2S)-1-(1-(cyclopropylmethyl)-1H-1,2,4-triazol-5-yl)-1-(2-(methoxy-d3)acetamido)propan-2-yl)-2-fluorophenyl)amino)-3-oxopropan-2-yl)-1-(methyl-d3)-1H-pyrazole-5-carboxamide]	9.6 nM	5.3 nM	13 nM
CCC(=O)N[C@@H](c1ncnn1CC1CC1)[C@@H](C)c1ccc(NC(=O)[C@@H](NC(=O)c2ccnn2CC)C(C2CC2)C2CC2)c(F)c1 [Compound 72, N-((S)-1,1-dicyclopropyl-3-((4-((1R,2S)-1-(1-(cyclopropylmethyl)-1H-1,2,4-triazol-5-yl)-1-propionamidopropan-2-yl)-2-fluorophenyl)amino)-3-oxopropan-2-yl)-1-ethyl-1H-pyrazole-5-carboxamide]	1.9 nM	1 nM	8.5 nM
CCC(=O)N[C@@H](c1ncnn1CC1CC1)[C@@H](C)c1ccc(NC(=O)[C@@H](NC(=O)c2ccnn2C2CN(C)C2)C(C2CC2)C2CC2)c(F)c1 [Compound 73, N—((S)-1,1-dicyclopropyl-3-((4-((1R,2S)-1-(1-(cyclopropylmethyl)-1H-1,2,4-triazol-5-yl)-1-propionamidopropan-2-yl)-2-fluorophenyl)amino)-3-oxopropan-2-yl)-1-(1-methylazetidin-3-yl)-1H-pyrazole-5-carboxamide]	153 nM	174 nM	180 nM
CCC(=O)N[C@@H](c1ncnn1CC1CC1)[C@@H](C)c1ccc(NC(=O)[C@@H](NC(=O)c2nsnc2C)C(C2CC2)C2CC2)c(F)c1 [Compound 74, N-((S)-1,1-dicyclopropyl-3-((4-((1R,2S)-1-(1-(cyclopropylmethyl)-1H-1,2,4-triazol-5-yl)-1-propionamidopropan-2-yl)-2-fluorophenyl)amino)-3-oxopropan-2-yl)-4-methyl-1,2,5-thiadiazole-3-carboxamide]	31 nM	5.4 nM	61 nM
[2H]C([2H])([2H])C([2H])([2H])C(=O)N[C@@H](c1ncnn1CC1CC1)[C@@H](C)c1ccc(NC(=O)[C@@H](NC(=O)c2nonc2C)C(C2CC2)C2CC2)c(F)c1 [Compound 75, N-((S)-1,1-dicyclopropyl-3-((4-((1R,2S)-1-(1-(cyclopropylmethyl)-1H-1,2,4-triazol-5-yl)-1-(propanamido-2,2,3,3,3-d5)propan-2-yl)-2-fluorophenyl)amino)-3-oxopropan-2-yl)-4-methyl-1,2,5-oxadiazole-3-carboxamide]	6.1 nM	1.1 nM	8.1 nM
